{
  "source": "patent US4431665A",
  "about": "“Acylated laidlomycin derivatives” (priority 1980, dated 1984)",
  "key": {"[1]": {"test_system": "rumen microorganisms (mixed microbial population of rumen contents)", "assay": "Enhancement of intraruminal propionic acid production, batch culture fermentation of rumen contents", "format": "cell-based, bovine (rumen-fistulated)", "conditions": "9 h, 39° C.", "procedure": "Enhancement of intraruminal propionic acid production is determined using a batch culture fermentation system. Rumen contents from a rumen-fistulated bovine are mixed with an equal amount of buffer which contains mineral, energy and nitrogen sources required for continued growth and metabolism of the mixed microbial population. Aliquots of this inoculum then are transferred to incubation vessels containing appropriate amounts of sodium laidlomycin (Na L.) (see Example 1A), and L. butyrate (L.C4) (prepared according to the procedure of Example 1A). After 9 hours of incubation at 39° C., concentrations of individual volatile fatty acids in each incubation vessel are determined by gas-liquid chromatography. The net production of each individual volatile fatty acid (acetic [AA], propionic [PA] and butyric [BA]) is calculated as the difference between the concentration after incubation and the concentration before incubation. The molar percentage of propionic acid produced is calculated from the following equation: [formula]\nThe comparative activities of sodium laidlomycin (Na L.) and the laidlomycin butyrate upon propionic acid and lactic acid production are set forth in Tables 1 and 2 where the concentration is in micrograms per ml (μg/ml).\n(§1) The procedure of Example 2 was followed to compare laidlomycin (L.), sodium L. (Na L.), L.-propionate (L.C3), L. butyrate (L.C4), L. isobutyrate (L. isoC4), L. pentanoate (L.C5) and L. hexanoate (L.C6).\n(§2) The procedure of Example 2 was followed to compare the activities of L. heptanoate (L. C7), L. octanoate (L. C8), L. decanoate (L. C10) and L. dodecanoate (L. C12) in increasing propionic acid production and inhibiting lactic acid production.\n(§3) The procedure of Example 2 was followed to compare the activities of laidlomycin (L.) acetate (L. C2), L. pentanoate (L. C5), L. stearate (L. C18), L. cyclobutylcarboxylate, L. cyclopentylcarboxylate, L. cyclohexylcarboxylate and L. cyclopropylcarboxylate."}, "[2]": {"test_system": "rumen contents (lactic acid accumulation)", "assay": "Inhibition of lactic acid accumulation, second batch culture fermentation of rumen contents with glucose", "format": "cell-based, bovine (rumen fistulated)", "conditions": "6 h, 39° C.; for Lactic Acid Accumulation (μ mol/ml): Table 8, 0 μg/ml: 40.47; for Accumulation of Lactic Acid - % of Control: Table 4, 360 min", "procedure": "Inhibition of lactic acid accumulation is determined using a second batch culture fermentation system. Rumen contents from a rumen fistulated bovine are mixed with an equal amount of buffer which contains a 150 mM concentration of glucose. Following 6 hours of incubation at 39° C., lactic acid produced in the fermentation is analyzed by a specific enzymatic assay. The concentration of lactic acid in the fermentation broth is quantified by the increase in absorbance of light at […] when nicotinamide adenine dinucleotide is reduced by lactic acid with the aid of lactate dehydrogenase. […]\nas §1, §2, §3"}, "[3]": {"conditions": "Table 3, 1.25 μg/ml, 0 μg/ml: 28.5"}, "[4]": {"conditions": "Table 3, 5 μg/ml, 0 μg/ml: 28.5"}, "[5]": {"conditions": "Table 3, 20 μg/ml, 0 μg/ml: 28.5"}, "[6]": {"conditions": "Table 3, .31 μg/ml, 0 μg/ml: 28.5"}},
  "note": "Like-named read-outs stand apart in the source and are kept apart here.",
  "data": [
    {"smiles": "CCCCCCCCCCCCCCCCCC(=O)OCC1(O)OC(C2CC(C)C(C3(C)CCC(C4(C)CCC5(CC(O)C(C)C(C(C)C(OC(=O)CC)C(C)C(=O)O)O5)O4)O3)O2)C(C)CC1C", "note": "(stereo not drawn) [L. C18, laidlomycin stearate]", "values": [
      {"measurement": "% Propionic Acid", "setting": "[1]; Table 7, 1.25 μg/ml, 0 μg/ml: 36.1", "value": 40.0, "unit": "%"},
      {"measurement": "% Propionic Acid", "setting": "[1]; Table 7, 2.5 μg/ml, 0 μg/ml: 36.1", "value": 41.6, "unit": "%"},
      {"measurement": "% Propionic Acid", "setting": "[1]; Table 7, 5 μg/ml, 0 μg/ml: 36.1", "value": 44.6, "unit": "%"},
      {"measurement": "% Propionic Acid", "setting": "[1]; Table 7, 10 μg/ml, 0 μg/ml: 36.1", "value": 45.5, "unit": "%"},
      {"measurement": "% Propionic Acid", "setting": "[1]; Table 7, 20 μg/ml, 0 μg/ml: 36.1", "value": 45.8, "unit": "%"},
      {"measurement": "% Propionic Acid", "setting": "[1]; Table 7, .313 μg/ml, 0 μg/ml: 36.1", "value": 37.1, "unit": "%"},
      {"measurement": "% Propionic Acid", "setting": "[1]; Table 7, .625 μg/ml, 0 μg/ml: 36.1", "value": 37.6, "unit": "%"},
      {"measurement": "Lactic Acid Accumulation (μ mol/ml)", "setting": "[2]; 1.25 μg/ml", "value": 48.87, "unit": "μ mol/ml"},
      {"measurement": "Lactic Acid Accumulation (μ mol/ml)", "setting": "[2]; 2.5 μg/ml", "value": 52.51, "unit": "μ mol/ml"},
      {"measurement": "Lactic Acid Accumulation (μ mol/ml)", "setting": "[2]; 5 μg/ml", "value": 46.20, "unit": "μ mol/ml"},
      {"measurement": "Lactic Acid Accumulation (μ mol/ml)", "setting": "[2]; 10 μg/ml", "value": 37.83, "unit": "μ mol/ml"},
      {"measurement": "Lactic Acid Accumulation (μ mol/ml)", "setting": "[2]; 20 μg/ml", "value": 29.93, "unit": "μ mol/ml"},
      {"measurement": "Lactic Acid Accumulation (μ mol/ml)", "setting": "[2]; .313 μg/ml", "value": 50.29, "unit": "μ mol/ml"},
      {"measurement": "Lactic Acid Accumulation (μ mol/ml)", "setting": "[2]; .625 μg/ml", "value": 52.57, "unit": "μ mol/ml"}
    ]},
    {"smiles": "CCC(=O)OC(C(C)C(=O)O)C(C)C1OC2(CCC(C)(C3CCC(C)(C4OC(C5OC(O)(COC(=O)C(C)C)C(C)CC5C)CC4C)O3)O2)CC(O)C1C", "note": "(stereo not drawn) [L. iso C4, laidlomycin isobutyrate]", "values": [
      {"measurement": "% Propionic Acid", "setting": "[1]; [3]", "value": 39.6, "unit": "%"},
      {"measurement": "% Propionic Acid", "setting": "[1]; [4]", "value": 43.9, "unit": "%"},
      {"measurement": "% Propionic Acid", "setting": "[1]; [5]", "value": 47.5, "unit": "%"},
      {"measurement": "% Propionic Acid", "setting": "[1]; [6]", "value": 34.3, "unit": "%"},
      {"measurement": "activity at 1.25 µg/mL", "setting": "[2]; Bos taurus, read-out: Accumulation of Lactic Acid - % of Control, Table 4, 1.25 μg/ml", "value": 12, "unit": "%"},
      {"measurement": "activity at 5 µg/mL", "setting": "[2]; Bos taurus, read-out: Accumulation of Lactic Acid - % of Control, Table 4, 5 μg/ml", "value": 13, "unit": "%"},
      {"measurement": "activity at 20 µg/mL", "setting": "[2]; Bos taurus, read-out: Accumulation of Lactic Acid - % of Control, Table 4, 20 μg/ml", "value": 16, "unit": "%"},
      {"measurement": "activity at 0.31 µg/mL", "setting": "[2]; Bos taurus, read-out: Accumulation of Lactic Acid - % of Control, Table 4, .31 μg/ml", "value": 37, "unit": "%"}
    ]},
    {"smiles": "CCC(=O)OC(C(C)C(=O)O)C(C)C1OC2(CCC(C)(C3CCC(C)(C4OC(C5OC(O)(CO)C(C)CC5C)CC4C)O3)O2)CC(O)C1C", "note": "(stereo not drawn) [Na L., sodium laidlomycin, reference compound]", "values": [
      {"measurement": "% Propionic Acid", "setting": "[1]; Table 1, 1.25 μg/ml, 0 μg/ml: 35.4", "value": 41.3, "unit": "%"},
      {"measurement": "% Propionic Acid", "setting": "[1]; Table 1, 2.5 μg/ml, 0 μg/ml: 35.4", "value": 43.2, "unit": "%"},
      {"measurement": "% Propionic Acid", "setting": "[1]; Table 1, 5 μg/ml, 0 μg/ml: 35.4", "value": 44.4, "unit": "%"},
      {"measurement": "% Propionic Acid", "setting": "[1]; Table 1, 10 μg/ml, 0 μg/ml: 35.4", "value": 45.4, "unit": "%"},
      {"measurement": "% Propionic Acid", "setting": "[1]; Table 1, .31 μg/ml, 0 μg/ml: 35.4", "value": 40.2, "unit": "%"},
      {"measurement": "% Propionic Acid", "setting": "[1]; Table 1, .62 μg/ml, 0 μg/ml: 35.4", "value": 40.8, "unit": "%"},
      {"measurement": "% Propionic Acid", "setting": "[1]; [3]", "value": 34.1, "unit": "%"},
      {"measurement": "% Propionic Acid", "setting": "[1]; [4]", "value": 34.6, "unit": "%"},
      {"measurement": "% Propionic Acid", "setting": "[1]; [5]", "value": 36.8, "unit": "%"},
      {"measurement": "% Propionic Acid", "setting": "[1]; [6]", "value": 32.0, "unit": "%"},
      {"measurement": "activity at 1.25 µg/mL", "setting": "[2]; Bos taurus, read-out: Lactic Acid Accumulation (% of Control), Table 2, 1.25 μg/ml", "value": 125, "unit": "%"},
      {"measurement": "activity at 2.5 µg/mL", "setting": "[2]; Bos taurus, read-out: Lactic Acid Accumulation (% of Control), Table 2, 2.5 μg/ml", "value": 112, "unit": "%"},
      {"measurement": "activity at 5 µg/mL", "setting": "[2]; Bos taurus, read-out: Lactic Acid Accumulation (% of Control), Table 2, 5 μg/ml", "value": 93, "unit": "%"},
      {"measurement": "activity at 10 µg/mL", "setting": "[2]; Bos taurus, read-out: Lactic Acid Accumulation (% of Control), Table 2, 10 μg/ml", "value": 67, "unit": "%"},
      {"measurement": "activity at 0.31 µg/mL", "setting": "[2]; Bos taurus, read-out: Lactic Acid Accumulation (% of Control), Table 2, .31 μg/ml", "value": 135, "unit": "%"},
      {"measurement": "activity at 0.62 µg/mL", "setting": "[2]; Bos taurus, read-out: Lactic Acid Accumulation (% of Control), Table 2, .62 μg/ml", "value": 132, "unit": "%"},
      {"measurement": "Accumulation of Lactic Acid - % of Control", "setting": "[2]; 1.25 μg/ml", "value": "94 % of Control"},
      {"measurement": "Accumulation of Lactic Acid - % of Control", "setting": "[2]; 5 μg/ml", "value": "57 % of Control"},
      {"measurement": "Accumulation of Lactic Acid - % of Control", "setting": "[2]; 20 μg/ml", "value": "40 % of Control"},
      {"measurement": "Accumulation of Lactic Acid - % of Control", "setting": "[2]; .31 μg/ml", "value": "114 % of Control"}
    ]}
  ]
}
